Test results reported in patent publication US9498532B2, “Antibody drug conjugates” (Novartis AG, priority 2013, dated 2016).

Test system: CHGA119 primary gastric tumor xenograft
Test: Anti-tumor activity and host response in CHGA119 patient-derived xenograft
Settings: CHGA119-tumor bearing mice, ADCs 10 mg/kg i.v. q2wk, BGJ398 10 mg/kg p.o. qd
Text: In these studies, CHGA119 tumor fragments in size of 2 mm×2 mm×2 mm were implanted subcutaneously (s.c.) into female nu/nu athymic mice. […] Tumors were calipered twice a week.

CCN1CCN(c2ccc(Nc3cc(N(C)C(=O)Nc4c(Cl)c(OC)cc(OC)c4Cl)ncn3)cc2)CC1 [BGJ398, 3-(2,6-Dichloro-3,5-dimethoxy-phenyl)-1-{6-[4-(4-ethyl-piperazin-1-yl)-phenylamino]-pyrimidin-4-yl}-1-methyl-urea]
Host response % body weight change (mean ± SEM): −3.7 ± 3% | Host response Mean body weight change (g ± SEM): -0.8 ± 0.7 g | Mean tumor volume change (mm^3 ± SEM): 386 ± 169 mm^3 | Survival (survivors/total): 8/8 | Tumor response T/C (%) (after 5 weeks of treatment): 33%
